In patent US20200308170A1, “KRAS G12C INHIBITORS” (Mirati Therapeutics, Inc., priority 2017, published 2020):

Target: T1, KRas G12C (Homo sapiens, UniProt P01116, C118S/C51S/C80L/G12C)
T1 construct: GDP-loaded K-Ras (1-169) G12C, C51S, C80L, C118S
Test: KRas G12C Modification Assay (LCMS detection of covalent adduct)
Format: binding
Details: 5 μM concentration for 3 hours; LC/MS of intact protein; higher POC = higher degree of modification
Description: A 10 μL aliquot of each protein solution was then transferred to a 384 well microtiter plate. Initial compound stocks were generated at fifty times their desired final assay concentration in DMSO.
Exemplary compounds of Formula (II) were diluted 25-fold into K-Ras Assay Buffer to a final of two times their final concentration. A 10 μL aliquot of each diluted compound solution was then added to each of the protein solutions in the microtiter plate to initiate reaction. […] At each time point, the reactions were quenched with 20 μL of a 25 mM acetic acid solution. […] Once all reactions were quenched, the plates were heat sealed and the samples were injected into a LC/MS system for data acquisition.
Samples were injected in their liquid phase onto a C-3 reverse phase column to remove assay buffer and prepare the samples for mass spectrometer. The proteins were eluted from the column using an acetonitrile gradient and fed directly into the mass analyzer. Initial raw data analysis took place in Agilent MassHunter software immediately post data acquisition.
Raw data analysis of the intact protein was exclusively a deconvolution of the multiple charge states of each protein in solution using a maximum entropy deconvolution provided in Mass Hunter. To minimize complexity, only the data over limited mass ranges were considered for analysis, with a minimum of one Dalton mass step intervals. The heights of all masses identified during raw data analysis were exported to be further analyzed in Spotfire® data analysis software.
Final data analysis was a multistep process in the Spotfire® data analysis software package. Briefly, each protein mass was calculated as a percent of the total signal of that sample, that percentage was then normalized to the percentage of signal of the protein in the absence of reactive compounds. Those normalized signals were reported as normalized percent of control (POC). […] Key: “A”≤25% POC; “B”>25% POC−≤50% POC; “C”>50% POC and ND=not determined.

SMILES	POC (normalized percent of control; degree of covalent modification of KRas G12C)
CN(C/C=C/C(=O)N1CCN(c2nc(OC[C@@H]3CCCN3C)nc3c2CCN(c2cccc4cccc(Cl)c24)C3)C[C@@H]1CC#N)CC(F)(F)F [Example 11, 2-[(2S)-4-[7-(8-chloro-1-naphthyl)-2-[[(2S)-1-methylpyrrolidin-2-yl]methoxy]-6,8-dihydro-5H-pyrido[3,4-d]pyrimidin-4-yl]-1-[(E)-4-[methyl(2,2,2-trifluoroethyl)amino]but-2-enoyl]piperazin-2-yl]acetonitrile]	C (“C”>50% POC)
CN1CCC[C@H]1COc1nc2c(c(N3CCN(C(=O)C#CCO)[C@@H](CC#N)C3)n1)CCN(c1cccc3cccc(Cl)c13)C2 [Example 12, 2-[(2S)-4-[7-(8-chloro-1-naphthyl)-2-[[(2S)-1-methylpyrrolidin-2-yl]methoxy]-6,8-dihydro-5H-pyrido[3,4-d]pyrimidin-4-yl]-1-(4-hydroxybut-2-ynoyl)piperazin-2-yl]acetonitrile]	C (“C”>50% POC)
CN1CCC[C@H]1COc1nc2c(c(N3CCN(C(=O)/C=C/C(F)F)[C@@H](CC#N)C3)n1)CCN(c1cccc3cccc(Cl)c13)C2 [Example 13, 2-[(2S)-4-[7-(8-chloro-1-naphthyl)-2-[[(2S)-1-methylpyrrolidin-2-yl]methoxy]-6,8-dihydro-5H-pyrido[3,4-d]pyrimidin-4-yl]-1-[(E)-4,4-difluorobut-2-enoyl]piperazin-2-yl]acetonitrile]	C (“C”>50% POC)
C=C(COC)C(=O)N1CCN(c2nc(OC[C@@H]3CCCN3C)nc3c2CCN(c2cccc4cccc(Cl)c24)C3)C[C@@H]1CC#N [Example 14, 2-[(2S)-4-[7-(8-chloro-1-naphthyl)-2-[[(2S)-1-methylpyrrolidin-2-yl]methoxy]-6,8-dihydro-5H-pyrido[3,4-d]pyrimidin-4-yl]-1-[2-(methoxymethyl)prop-2-enoyl]piperazin-2-yl]acetonitrile]	A (“A”≤25% POC)
Cc1cccc(N2CCc3c(nc(OC[C@@H]4CCCN4C)nc3N3CCN(C(=O)/C=C/C(F)(F)F)[C@@H](CC#N)C3)C2)c1C [Example 15, 2-((S)-4-(7-(2,3-dimethylphenyl)-2-(((S)-1-methylpyrrolidin-2-yl)methoxy)-5,6,7,8-tetrahydropyrido[3,4-d]pyrimidin-4-yl)-1-((E)-4,4,4-trifluorobut-2-enoyl)piperazin-2-yl)acetonitrile]	C (“C”>50% POC)
C=C(C(=O)N1CCN(c2nc(OC[C@@H]3CCCN3C)nc3c2CCN(c2cccc(C)c2C)C3)C[C@@H]1CC#N)C(F)(F)F [Example 16, 2-((S)-4-(7-(2,3-dimethylphenyl)-2-(((S)-1-methylpyrrolidin-2-yl)methoxy)-5,6,7,8-tetrahydropyrido[3,4-d]pyrimidin-4-yl)-1-(2-(trifluoromethyl)acryloyl)piperazin-2-yl)acetonitrile]	A (“A”≤25% POC)
C=C(CO)C(=O)N1CCN(c2nc(OC[C@@H]3CCCN3C)nc3c2CCN(c2cccc(C)c2C)C3)C[C@@H]1CC#N [Example 17, 2-((S)-4-(7-(2,3-dimethylphenyl)-2-(((S)-1-methylpyrrolidin-2-yl)methoxy)-5,6,7,8-tetrahydropyrido[3,4-d]pyrimidin-4-yl)-1-(2-(hydroxymethyl)acryloyl)piperazin-2-yl)acetonitrile]	B (“B”>25% POC−≤50% POC)
COC/C=C/C(=O)N1CCN(c2nc(OC[C@@H]3CCCN3C)nc3c2CCN(c2cccc(C)c2C)C3)C[C@@H]1CC#N [Example 18, 2-((S)-4-(7-(2,3-dimethylphenyl)-2-(((S)-1-methylpyrrolidin-2-yl)methoxy)-5,6,7,8-tetrahydropyrido[3,4-d]pyrimidin-4-yl)-1-((E)-4-methoxybut-2-enoyl)piperazin-2-yl)acetonitrile]	C (“C”>50% POC)
